Key:
[1] = target: T1, Type-2 angiotensin II receptor (Homo sapiens, UniProt P50052); type: cell-based; details: cho-k1; further: in other assays of this panel Not Active means under 50% inhibition at 10 µM
T1 sequence (P50052 whole entry): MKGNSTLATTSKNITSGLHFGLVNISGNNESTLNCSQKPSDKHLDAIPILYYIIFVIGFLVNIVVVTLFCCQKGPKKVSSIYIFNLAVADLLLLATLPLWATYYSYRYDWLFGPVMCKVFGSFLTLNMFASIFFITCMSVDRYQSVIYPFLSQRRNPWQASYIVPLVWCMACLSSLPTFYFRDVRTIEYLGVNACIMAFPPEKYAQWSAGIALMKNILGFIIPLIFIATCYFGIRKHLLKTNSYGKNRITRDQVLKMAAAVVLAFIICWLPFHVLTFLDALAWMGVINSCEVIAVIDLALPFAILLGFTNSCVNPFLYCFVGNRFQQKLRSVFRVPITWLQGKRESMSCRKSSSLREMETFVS

[2] = DRUGMATRIX: Sigma2 radioligand binding (ligand: [3H] Ifenprodil); type: cell membranes, Rattus norvegicus, Wistar, Brain, Membrane; details: Not Active = under 50% inhibition at 10 µM
Insulin receptor = Insulin receptor (Rattus norvegicus, UniProt P15127); type: cell membranes, Wistar, Liver, Membrane; further: in other assays of this panel Not Active means under 50% inhibition at 10 µM
[3] = target: T2, Muscarinic acetylcholine receptor M4 (Homo sapiens, UniProt P08173); type: cell membranes, CHO-K1, Membrane; details: cho-k1; further: in other assays of this panel Not Active means under 50% inhibition at 10 µM
T2 sequence (P08173 whole entry): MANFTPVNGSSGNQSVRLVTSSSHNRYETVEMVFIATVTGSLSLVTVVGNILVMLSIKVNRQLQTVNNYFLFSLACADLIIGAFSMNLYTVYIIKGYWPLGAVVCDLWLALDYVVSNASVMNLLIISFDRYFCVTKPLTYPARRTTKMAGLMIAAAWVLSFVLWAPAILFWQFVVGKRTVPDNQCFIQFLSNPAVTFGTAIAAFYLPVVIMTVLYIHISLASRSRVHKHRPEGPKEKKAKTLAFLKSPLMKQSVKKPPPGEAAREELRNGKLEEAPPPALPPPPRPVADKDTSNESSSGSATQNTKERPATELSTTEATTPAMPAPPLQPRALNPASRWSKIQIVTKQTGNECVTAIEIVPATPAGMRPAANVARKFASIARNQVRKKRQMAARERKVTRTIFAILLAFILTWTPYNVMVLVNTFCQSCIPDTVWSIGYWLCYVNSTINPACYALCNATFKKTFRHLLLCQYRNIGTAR

[4] = DRUGMATRIX: Phosphodiesterase PDE3 enzyme inhibition (substrate: [3H]cAMP + cAMP); type: tissue-based, Homo sapiens; details: platelet; Not Active = under 50% inhibition at 10 µM
Cytochrome P450 2C9 = Cytochrome P450 2C9 (Homo sapiens, UniProt P11712); details: bti-tn-5b1-4; further: in other assays of this panel Not Active means under 50% inhibition at 10 µM
Sequence of Cytochrome P450 2C9 (P11712 whole entry): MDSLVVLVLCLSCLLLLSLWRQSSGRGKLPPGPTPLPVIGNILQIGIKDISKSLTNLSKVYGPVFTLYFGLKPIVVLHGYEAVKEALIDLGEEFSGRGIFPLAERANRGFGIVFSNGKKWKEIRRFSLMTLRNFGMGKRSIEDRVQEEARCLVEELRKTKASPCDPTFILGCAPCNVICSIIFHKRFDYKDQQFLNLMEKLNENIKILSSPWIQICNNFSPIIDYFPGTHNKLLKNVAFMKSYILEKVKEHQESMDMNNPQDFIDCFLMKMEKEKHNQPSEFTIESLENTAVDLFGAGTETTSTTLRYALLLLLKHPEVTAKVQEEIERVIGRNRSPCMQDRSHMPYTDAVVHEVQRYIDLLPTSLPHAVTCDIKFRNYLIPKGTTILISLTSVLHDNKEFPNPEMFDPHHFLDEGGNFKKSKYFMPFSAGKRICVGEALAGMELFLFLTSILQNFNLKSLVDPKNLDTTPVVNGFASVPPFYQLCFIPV

Sequence of Insulin receptor (P15127 27-759 limits assumed): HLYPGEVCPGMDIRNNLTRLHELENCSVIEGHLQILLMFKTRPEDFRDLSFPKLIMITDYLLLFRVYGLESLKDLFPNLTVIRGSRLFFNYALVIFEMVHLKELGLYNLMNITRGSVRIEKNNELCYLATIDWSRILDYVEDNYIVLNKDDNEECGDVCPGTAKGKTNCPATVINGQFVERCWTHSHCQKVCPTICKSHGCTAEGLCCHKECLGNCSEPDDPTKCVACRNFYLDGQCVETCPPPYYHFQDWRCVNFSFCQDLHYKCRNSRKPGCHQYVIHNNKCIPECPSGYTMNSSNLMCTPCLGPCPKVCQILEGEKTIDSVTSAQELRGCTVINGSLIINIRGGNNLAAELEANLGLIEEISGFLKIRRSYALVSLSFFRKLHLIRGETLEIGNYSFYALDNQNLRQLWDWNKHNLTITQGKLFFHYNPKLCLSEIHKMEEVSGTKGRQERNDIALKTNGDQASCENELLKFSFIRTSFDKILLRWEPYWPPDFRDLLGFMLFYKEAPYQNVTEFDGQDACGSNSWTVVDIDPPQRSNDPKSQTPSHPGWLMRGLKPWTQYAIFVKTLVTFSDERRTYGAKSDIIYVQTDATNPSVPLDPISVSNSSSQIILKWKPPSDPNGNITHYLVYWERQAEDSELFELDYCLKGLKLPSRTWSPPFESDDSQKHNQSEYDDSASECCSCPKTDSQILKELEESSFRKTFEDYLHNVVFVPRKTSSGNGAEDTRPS
Sequence of Insulin receptor (P15127 764-1383 limits assumed): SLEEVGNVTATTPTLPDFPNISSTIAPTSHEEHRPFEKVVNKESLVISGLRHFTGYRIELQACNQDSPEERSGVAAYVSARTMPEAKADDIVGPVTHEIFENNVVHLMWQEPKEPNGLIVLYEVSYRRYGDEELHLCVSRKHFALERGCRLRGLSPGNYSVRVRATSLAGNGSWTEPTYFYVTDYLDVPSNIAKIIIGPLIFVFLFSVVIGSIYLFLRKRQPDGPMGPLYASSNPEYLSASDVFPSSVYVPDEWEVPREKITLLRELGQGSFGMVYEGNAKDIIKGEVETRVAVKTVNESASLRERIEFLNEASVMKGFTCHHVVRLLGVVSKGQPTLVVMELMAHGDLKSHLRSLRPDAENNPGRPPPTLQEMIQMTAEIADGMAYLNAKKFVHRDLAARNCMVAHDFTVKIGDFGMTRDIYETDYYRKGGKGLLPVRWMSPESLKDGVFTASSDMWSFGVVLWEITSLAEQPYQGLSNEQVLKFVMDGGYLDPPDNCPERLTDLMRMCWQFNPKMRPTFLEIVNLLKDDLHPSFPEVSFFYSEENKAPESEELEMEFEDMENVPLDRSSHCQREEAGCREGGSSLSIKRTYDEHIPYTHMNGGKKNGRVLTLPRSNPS

Clc1cc2c(cc1Cl)Oc1cc(Cl)c(Cl)cc1O2 [2,3,7,8-TETRACHLORODIBENZO-P-DIOXIN]
Not Active: IC50 [1] | IC50 [2] | Ki [2] | IC50 (Insulin receptor) | IC50 [3] | IC50 [4] | Ki [4] | IC50 (Cytochrome P450 2C9) | Ki (Cytochrome P450 2C9)

OCCO [ETHYLENE GLYCOL]
Not Active: IC50 [1] | IC50 [2] | Ki [2] | IC50 (Insulin receptor) | IC50 [3] | IC50 [4] | Ki [4] | IC50 (Cytochrome P450 2C9) | Ki (Cytochrome P450 2C9)

NC[C@H]1O[C@H](O[C@H]2[C@H](O)[C@@H](O[C@H]3O[C@H](CO)[C@@H](O)[C@H](N)[C@H]3O)[C@H](N)C[C@@H]2N)[C@H](O)[C@@H](O)[C@@H]1O [KANAMYCIN]
Not Active: IC50 [1] | IC50 [2] | Ki [2] | IC50 (Insulin receptor) | IC50 [3] | IC50 [4] | Ki [4] | IC50 (Cytochrome P450 2C9) | Ki (Cytochrome P450 2C9)

O=C(/C=C/c1ccc(O)c(O)c1)OCCc1ccccc1 [CAFFEIC ACID PHENETHYL ESTER]
Not Active: IC50 [1] | IC50 [2] | Ki [2] | IC50 (Insulin receptor) | IC50 [3] | IC50 [4] | Ki [4] | IC50 (Cytochrome P450 2C9) | Ki (Cytochrome P450 2C9)

NC[C@@H]1O[C@H](O[C@H]2[C@@H](O)[C@H](O[C@@H]3[C@@H](O)[C@H](N)C[C@H](N)[C@H]3O[C@H]3O[C@H](CN)[C@@H](O)[C@H](O)[C@H]3N)O[C@@H]2CO)[C@H](N)[C@@H](O)[C@@H]1O [FRAMYCETIN]
Not Active: IC50 [1] | IC50 [2] | Ki [2] | IC50 (Insulin receptor) | IC50 [3] | IC50 [4] | Ki [4] | IC50 (Cytochrome P450 2C9) | Ki (Cytochrome P450 2C9)

CCCCCC[C@H]1C(=O)O[C@H](C)[C@H](NC(=O)c2cccc(NC=O)c2O)C(=O)O[C@@H](C)[C@@H]1OC(=O)CC(C)C [ANTIMYCIN A]
Not Active: IC50 [1] | IC50 [2] | Ki [2] | IC50 (Insulin receptor) | IC50 [3] | IC50 [4] | Ki [4] | IC50 (Cytochrome P450 2C9) | Ki (Cytochrome P450 2C9)

Oc1ccccc1O [CATECHOL]
Not Active: IC50 [1] | IC50 [2] | Ki [2] | IC50 (Insulin receptor) | IC50 [3] | IC50 [4] | Ki [4] | IC50 (Cytochrome P450 2C9) | Ki (Cytochrome P450 2C9)

Cc1c(F)c(N2CCNC(C)C2)cc2c1c(=O)c(C(=O)O)cn2C1CC1 (configuration not stated) [GREPAFLOXACIN]
Not Active: IC50 [1] | IC50 [2] | Ki [2] | IC50 (Insulin receptor) | IC50 [3] | IC50 [4] | Ki [4] | IC50 (Cytochrome P450 2C9) | Ki (Cytochrome P450 2C9)

[N-]=[N+]=CC(=O)OC[C@H](N)C(=O)O [AZASERINE]
Not Active: IC50 [1] | IC50 [2] | Ki [2] | IC50 (Insulin receptor) | IC50 [3] | IC50 [4] | Ki [4] | IC50 (Cytochrome P450 2C9) | Ki (Cytochrome P450 2C9)

CO[C@H]1[C@@H](O)[C@H](N)[C@@H](O[C@H]2O[C@H]([C@H](C)N)CC[C@H]2N)[C@H](O)[C@@H]1N(C)C(=O)CN [ASTROMICIN]
Not Active: IC50 [1] | IC50 [2] | Ki [2] | IC50 (Insulin receptor) | IC50 [3] | IC50 [4] | Ki [4] | IC50 (Cytochrome P450 2C9) | Ki (Cytochrome P450 2C9)

COc1ccc2cc(CCC(C)=O)ccc2c1 [NABUMETONE]
Not Active: IC50 [1] | IC50 [2] | Ki [2] | IC50 (Insulin receptor) | IC50 [3] | IC50 [4] | Ki [4] | IC50 (Cytochrome P450 2C9) | Ki (Cytochrome P450 2C9)

N=C(N)N/N=C/c1c(Cl)cccc1Cl [GUANABENZ]
Not Active: IC50 [1] | IC50 [2] | Ki [2] | IC50 (Insulin receptor) | IC50 [3] | IC50 [4] | Ki [4] | IC50 (Cytochrome P450 2C9) | Ki (Cytochrome P450 2C9)

NC(=O)N1c2ccccc2C=Cc2ccccc21 [CARBAMAZEPINE]
Not Active: IC50 [1] | IC50 [2] | Ki [2] | IC50 (Insulin receptor) | IC50 [3] | IC50 [4] | Ki [4] | IC50 (Cytochrome P450 2C9) | Ki (Cytochrome P450 2C9)

— ChEMBL document CHEMBL1909046, “DrugMatrix in vitro pharmacology data”
